# Test results taken from article PMC5218480 (PLoS ONE, 2017).
# Tested on: MV-4-11 cells
# Assay: Gene expression microarray analysis (Affymetrix PrimeView) and GSEA
# Format: cell-based, human
# Design: RFU PODN (11730768_x_at) / Fold change /veh PODN (11730768_x_at) / RFU LINC00158 (11744669_a_at) / Fold change /veh LINC00158 (11744669_a_at) / RFU DUSP10 (11751237_a_at) / Fold change /veh DUSP10 (11751237_a_at) / RFU ID3 (11757404_x_at) / Fold change /veh ID3 (11757404_x_at) / RFU PLEKHG5 (11737974_s_at) / Fold change /veh PLEKHG5 (11737974_s_at) / RFU LRRC4B (11730491_at) / Fold change /veh LRRC4B (11730491_at) / RFU GIMAP4 (11747438_a_at) / Fold change /veh GIMAP4 (11747438_a_at) / RFU KRT8 (11758183_x_at) / Fold change /veh KRT8 (11758183_x_at) / RFU CNN1 (11734310_a_at) / Fold change /veh CNN1 (11734310_a_at) / RFU VPS37D (11726825_at) / Fold change /veh VPS37D (11726825_at) / RFU C10orf10 (11716522_x_at) / Fold change /veh C10orf10 (11716522_x_at) / RFU KIR2DL2 /// KIR2DL4 /// KIR2DL5A /// KIR2DL5B /// KIR2DS1 /// KIR2DS2 /// KIR2DS3 /// KIR2DS4 /// KIR3DL3 /// KIR3DL3 /// KIR3DS1 (11738374_at) / Fold change /veh KIR2DL2 /// KIR2DL4 /// KIR2DL5A /// KIR2DL5B /// KIR2DS1 /// KIR2DS2 /// KIR2DS3 /// KIR2DS4 /// KIR3DL3 /// KIR3DL3 /// KIR3DS1 (11738374_at) / RFU C1QL1 (11718748_at) / Fold change /veh C1QL1 (11718748_at) / RFU TMPRSS4 (11747572_a_at) / Fold change /veh TMPRSS4 (11747572_a_at) / RFU HAMP (11756126_x_at) / Fold change /veh HAMP (11756126_x_at) / RFU RNFT2 (11725882_a_at) / Fold change /veh RNFT2 (11725882_a_at) / RFU NR4A2 (11747474_a_at) / Fold change /veh NR4A2 (11747474_a_at) / RFU ABCC12 (11746883_a_at) / Fold change /veh ABCC12 (11746883_a_at) / RFU TMEM136 (11760407_x_at) / Fold change /veh TMEM136 (11760407_x_at) / RFU CLDN22 /// WWC2 (11732394_at) / Fold change /veh CLDN22 /// WWC2 (11732394_at) / RFU HLA-DPB1 (11760878_x_at) / Fold change /veh HLA-DPB1 (11760878_x_at) / RFU SPINT1 (11716480_a_at) / Fold change /veh SPINT1 (11716480_a_at) / RFU GAP43 (11754022_s_at) / Fold change /veh GAP43 (11754022_s_at) / RFU A4GNT (11735810_at) / Fold change /veh A4GNT (11735810_at) / RFU PRB3 (11715151_x_at) / Fold change /veh PRB3 (11715151_x_at) / RFU TUBB4B (11761932_at) / Fold change /veh TUBB4B (11761932_at) / RFU CAPN14 (11732068_a_at) / Fold change /veh CAPN14 (11732068_a_at) / RFU TMCC2 (11721928_a_at) / Fold change /veh TMCC2 (11721928_a_at) / RFU IRGQ (11745062_a_at) / Fold change /veh IRGQ (11745062_a_at) / RFU FAM174B (11720279_a_at) / Fold change /veh FAM174B (11720279_a_at) / RFU TMPRSS4 (11748680_a_at) / Fold change /veh TMPRSS4 (11748680_a_at) / RFU FAM212B (11763350_a_at) / Fold change /veh FAM212B (11763350_a_at) / RFU PLEKHG5 (11743358_a_at) / Fold change /veh PLEKHG5 (11743358_a_at) / RFU ZSCAN30 (11745921_a_at) / Fold change /veh ZSCAN30 (11745921_a_at) / RFU CMKLR1 (11741424_a_at) / Fold change /veh CMKLR1 (11741424_a_at) / RFU LOC101060620 /// MAPK8IP1 (11723275_at) / Fold change /veh LOC101060620 /// MAPK8IP1 (11723275_at) / RFU SPTSSB (11747773_x_at) / Fold change /veh SPTSSB (11747773_x_at) / RFU PRSS12 (11739890_at) / Fold change /veh PRSS12 (11739890_at) / RFU BIN1 (11741810_x_at) / Fold change /veh BIN1 (11741810_x_at) / RFU WNT11 (11732464_a_at) / Fold change /veh WNT11 (11732464_a_at) / RFU C10orf10 (11716521_a_at) / Fold change /veh C10orf10 (11716521_a_at) / RFU C5orf56 (11738089_at) / Fold change /veh C5orf56 (11738089_at) / RFU CYB561 (11721691_x_at) / Fold change /veh CYB561 (11721691_x_at) / RFU ANKRD19P (11752326_a_at) / Fold change /veh ANKRD19P (11752326_a_at) / RFU OR2T12 /// OR2T33 /// OR2T8 (11738714_s_at) / Fold change /veh OR2T12 /// OR2T33 /// OR2T8 (11738714_s_at) / RFU VCAN (11748164_a_at) / Fold change /veh VCAN (11748164_a_at) / RFU JSRP1 (11732532_at) / Fold change /veh JSRP1 (11732532_at) / RFU KRTAP10-11 (11738290_x_at) / Fold change /veh KRTAP10-11 (11738290_x_at) / RFU MYO3A (11730013_a_at) / Fold change /veh MYO3A (11730013_a_at) / RFU EBF3 (11725865_a_at) / Fold change /veh EBF3 (11725865_a_at) / RFU CAMK2N1 (11719241_x_at) / Fold change /veh CAMK2N1 (11719241_x_at) / RFU C5orf56 (11738088_a_at) / Fold change /veh C5orf56 (11738088_a_at) / RFU OLFML3 (11715873_a_at) / Fold change /veh OLFML3 (11715873_a_at) / RFU LOC100653217 /// NTM (11731650_a_at) / Fold change /veh LOC100653217 /// NTM (11731650_a_at) / RFU MAPK11 (11762145_a_at) / Fold change /veh MAPK11 (11762145_a_at) / RFU FIZ1 (11724087_x_at) / Fold change /veh FIZ1 (11724087_x_at) / RFU OASL (11726364_x_at) / Fold change /veh OASL (11726364_x_at) / RFU SOX15 (11748057_x_at) / Fold change /veh SOX15 (11748057_x_at) / RFU CD79A (11719716_a_at) / Fold change /veh CD79A (11719716_a_at) / RFU HIST1H1D (11736915_at) / Fold change /veh HIST1H1D (11736915_at) / RFU CASKIN2 (11723855_a_at) / Fold change /veh CASKIN2 (11723855_a_at) / RFU LOC730098 (11760151_x_at) / Fold change /veh LOC730098 (11760151_x_at) / RFU OR4N2 (11742367_at) / Fold change /veh OR4N2 (11742367_at) / RFU PRRT2 (11749266_a_at) / Fold change /veh PRRT2 (11749266_a_at) / RFU SNX32 (11753110_a_at) / Fold change /veh SNX32 (11753110_a_at) / RFU CDHR5 (11726645_a_at) / Fold change /veh CDHR5 (11726645_a_at) / RFU RCAN1 (11760418_a_at) / Fold change /veh RCAN1 (11760418_a_at) / RFU FAM167A (11723789_a_at) / Fold change /veh FAM167A (11723789_a_at) / RFU FAM26E (11764081_at) / Fold change /veh FAM26E (11764081_at) / RFU ISYNA1 (11749810_s_at) / Fold change /veh ISYNA1 (11749810_s_at) / RFU ACY1 (11761880_at) / Fold change /veh ACY1 (11761880_at) / RFU 11764098_at / Fold change /veh 11764098_at / RFU SAMD14 (11745864_x_at) / Fold change /veh SAMD14 (11745864_x_at) / RFU NPB (11741838_a_at) / Fold change /veh NPB (11741838_a_at) / RFU TMPRSS6 (11731388_a_at) / Fold change /veh TMPRSS6 (11731388_a_at) / RFU KRTAP10-2 (11738614_at) / Fold change /veh KRTAP10-2 (11738614_at) / RFU ARHGAP8 /// PRR5-ARHGAP8 (11727945_x_at) / Fold change /veh ARHGAP8 /// PRR5-ARHGAP8 (11727945_x_at) / RFU KRTAP5-7 /// NADSYN1 (11734609_at) / Fold change /veh KRTAP5-7 /// NADSYN1 (11734609_at) / RFU RASL12 (11751679_a_at) / Fold change /veh RASL12 (11751679_a_at) / RFU CDKN2B (11736163_a_at) / Fold change /veh CDKN2B (11736163_a_at) / RFU PRF1 (11729649_at) / Fold change /veh PRF1 (11729649_at) / RFU, ZNF638 /// ZNF638-IT1 / Fold change vs veh, ZNF638 /// ZNF638-IT1 / RFU, PANK3 / Fold change vs veh, PANK3 / RFU, SH3YL1 / Fold change vs veh, SH3YL1 / RFU, ZEB2 / Fold change vs veh, ZEB2 / RFU, NRIP1 / Fold change vs veh, NRIP1 / RFU, PTTG1IP / Fold change vs veh, PTTG1IP / RFU, CAPN2 / Fold change vs veh, CAPN2 / RFU, MED14 / Fold change vs veh, MED14 / RFU, SNORA58 / Fold change vs veh, SNORA58 / RFU, C1orf63 / Fold change vs veh, C1orf63 / RFU, LRRFIP1 / Fold change vs veh, LRRFIP1 / RFU, NDUFAF7 / Fold change vs veh, NDUFAF7 / RFU, SLC12A2 / Fold change vs veh, SLC12A2 / RFU, IBTK / Fold change vs veh, IBTK / RFU, ESF1 / Fold change vs veh, ESF1 / Fold change vs veh, TMEM50B / RFU, TAOK1 / Fold change vs veh, TAOK1 / RFU, ACBD3 / Fold change vs veh, ACBD3 / RFU, TMA16 / Fold change vs veh, TMA16 / RFU, RWDD3 / Fold change vs veh, RWDD3 / RFU, BCAT1 / Fold change vs veh, BCAT1 / RFU, EDEM3 / Fold change vs veh, EDEM3 / RFU, TMEM33 / Fold change vs veh, TMEM33 / RFU, WDR75 / Fold change vs veh, WDR75 / RFU, AHCTF1 / Fold change vs veh, AHCTF1 / RFU, TFRC / Fold change vs veh, TFRC / RFU, ZDHHC17 / Fold change vs veh, ZDHHC17 / RFU, NOM1 / Fold change vs veh, NOM1 / RFU, ARL8B / Fold change vs veh, ARL8B / RFU, ZBTB11 / Fold change vs veh, ZBTB11 / RFU, TAMM41 / Fold change vs veh, TAMM41 / RFU, KIAA1704 /// LOC100996395 / Fold change vs veh, KIAA1704 /// LOC100996395 / RFU, ING1 / Fold change vs veh, ING1 / RFU, TRMT61B / Fold change vs veh, TRMT61B / RFU, FUBP3 / Fold change vs veh, FUBP3 / RFU, TP53 / Fold change vs veh, TP53 / RFU, TNKS2 / Fold change vs veh, TNKS2 / RFU, ZFP14 / Fold change vs veh, ZFP14 / RFU, ACTR2 / Fold change vs veh, ACTR2 / RFU, PPP3R1 / Fold change vs veh, PPP3R1 / RFU, PIK3R1 / Fold change vs veh, PIK3R1 / RFU, HNRNPA1 / Fold change vs veh, HNRNPA1 / RFU, RNF170 / Fold change vs veh, RNF170 / RFU, ZNF28 / Fold change vs veh, ZNF28 / RFU, RNGTT / Fold change vs veh, RNGTT / RFU, OGT / Fold change vs veh, OGT / RFU, BRD1 / Fold change vs veh, BRD1 / RFU, MARS / Fold change vs veh, MARS / RFU, ZNF655 / Fold change vs veh, ZNF655 / RFU, FAHD1 / Fold change vs veh, FAHD1 / RFU, BDP1 / Fold change vs veh, BDP1 / RFU, LRRCC1 / Fold change vs veh, LRRCC1 / RFU, ARID1A / Fold change vs veh, ARID1A / RFU, ZNF146 / Fold change vs veh, ZNF146 / RFU, ZNF330 / Fold change vs veh, ZNF330 / RFU, GPN3 / Fold change vs veh, GPN3 / RFU, C9orf123 / Fold change vs veh, C9orf123 / RFU, N4BP2L2 / Fold change vs veh, N4BP2L2 / RFU, ARFIP1 / Fold change vs veh, ARFIP1 / RFU, FAM179B / Fold change vs veh, FAM179B / RFU, BCL10 / Fold change vs veh, BCL10 / RFU, UHRF1BP1L / Fold change vs veh, UHRF1BP1L / RFU, BET1 / Fold change vs veh, BET1 / RFU, CNOT2 / Fold change vs veh, CNOT2 / RFU, ZNF268 / Fold change vs veh, ZNF268 / Fold change vs veh, ZNF507 / RFU, DGCR2 / Fold change vs veh, DGCR2 / RFU, WDSUB1 / Fold change vs veh, WDSUB1 / Fold change vs veh, HSP90B1 /// MIR3652 / RFU, ADSS / Fold change vs veh, ADSS / RFU, GK / Fold change vs veh, GK / RFU, ZNF148 / Fold change vs veh, ZNF148 / RFU, TAF9 / Fold change vs veh, TAF9 / RFU, SLC1A5 / Fold change vs veh, SLC1A5 / RFU, SLMO2 / Fold change vs veh, SLMO2 / RFU, ABCC4 / Fold change vs veh, ABCC4 / RFU, LOC101060439 /// RAP1B / Fold change vs veh, LOC101060439 /// RAP1B / RFU, RFX7 / Fold change vs veh, RFX7 / RFU, GTPBP10 / Fold change vs veh, GTPBP10 / RFU, CNEP1R1 / Fold change vs veh, CNEP1R1 / RFU, BIVM-ERCC5 /// ERCC5 / Fold change vs veh, BIVM-ERCC5 /// ERCC5 / RFU, ILF3 / Fold change vs veh, ILF3 / RFU 11762660_at / Fold change /veh 11762660_at / RFU VCAN (11757783_s_at) / Fold change /veh VCAN (11757783_s_at) / RFU DDX43 (11728927_at) / Fold change /veh DDX43 (11728927_at) / RFU KRT8 (11758188_x_at) / Fold change /veh KRT8 (11758188_x_at) / RFU NKD1 (11759106_at) / Fold change /veh NKD1 (11759106_at) / RFU SRD5A1 (11742802_a_at) / Fold change /veh SRD5A1 (11742802_a_at) / RFU TPSAB1 /// TPSB2 (11721975_s_at) / Fold change /veh TPSAB1 /// TPSB2 (11721975_s_at) / RFU GSTM3 (11746129_a_at) / Fold change /veh GSTM3 (11746129_a_at) / RFU IL23R (11737362_x_at) / Fold change /veh IL23R (11737362_x_at) / RFU TMEM51 (11727254_a_at) / Fold change /veh TMEM51 (11727254_a_at) / RFU PIWIL2 (11732686_x_at) / Fold change /veh PIWIL2 (11732686_x_at) / RFU ORM1 (11744905_x_at) / Fold change /veh ORM1 (11744905_x_at) / RFU CCDC152 (11743942_at) / Fold change /veh CCDC152 (11743942_at) / RFU ECM1 (11717891_a_at) / Fold change /veh ECM1 (11717891_a_at) / RFU IL23R (11748794_a_at) / Fold change /veh IL23R (11748794_a_at) / RFU TNFAIP8L3 (11732012_x_at) / Fold change /veh TNFAIP8L3 (11732012_x_at) / RFU MBOAT4 (11741988_at) / Fold change /veh MBOAT4 (11741988_at) / RFU 11764193_at / Fold change /veh 11764193_at / RFU TMEM53 (11763286_at) / Fold change /veh TMEM53 (11763286_at) / RFU MAGEB2 (11727129_at) / Fold change /veh MAGEB2 (11727129_at) / RFU TMEM200A (11744735_a_at) / Fold change /veh TMEM200A (11744735_a_at) / RFU CCDC152 (11751479_a_at) / Fold change /veh CCDC152 (11751479_a_at) / RFU FAM211A (11726209_a_at) / Fold change /veh FAM211A (11726209_a_at) / RFU RGS16 (11746705_a_at) / Fold change /veh RGS16 (11746705_a_at) / RFU VCAN (11755009_s_at) / Fold change /veh VCAN (11755009_s_at) / RFU RHOB (11743442_s_at) / Fold change /veh RHOB (11743442_s_at) / RFU RGS16 (11720943_a_at) / Fold change /veh RGS16 (11720943_a_at) / RFU RGS16 (11720944_at) / Fold change /veh RGS16 (11720944_at) / RFU, VPS4B / Fold change vs veh, VPS4B / RFU, CREB1 / Fold change vs veh, CREB1 / RFU, DNAJC13 / Fold change vs veh, DNAJC13 / RFU, GNAQ / Fold change vs veh, GNAQ / RFU, CDK5R1 / Fold change vs veh, CDK5R1 / RFU, ZRANB3 / Fold change vs veh, ZRANB3 / RFU, CUL4A / Fold change vs veh, CUL4A / RFU, CCNY / Fold change vs veh, CCNY / RFU, UFL1 / Fold change vs veh, UFL1 / RFU, COG3 / Fold change vs veh, COG3 / RFU, DIAPH2 / Fold change vs veh, DIAPH2 / RFU, SKA2 / Fold change vs veh, SKA2 / RFU, AFF3 / Fold change vs veh, AFF3 / RFU, LMF1 / Fold change vs veh, LMF1 / RFU, IPO11 / Fold change vs veh, IPO11 / RFU, DFFB / Fold change vs veh, DFFB / RFU, FOXP1 / Fold change vs veh, FOXP1 / RFU, CARD8 / Fold change vs veh, CARD8 / RFU, STRN3 / Fold change vs veh, STRN3 / RFU, ADK / Fold change vs veh, ADK / RFU, RASSF2 / Fold change vs veh, RASSF2 / RFU, WIPF1 / Fold change vs veh, WIPF1 / RFU, LARP1B / Fold change vs veh, LARP1B / RFU, RASA1 / Fold change vs veh, RASA1 / RFU, RB1 / Fold change vs veh, RB1 / RFU, PPFIA1 / Fold change vs veh, PPFIA1 / RFU, MAT2A / Fold change vs veh, MAT2A / RFU, CCT5 / Fold change vs veh, CCT5 / RFU, WDR92 / Fold change vs veh, WDR92 / RFU, CUX1 / Fold change vs veh, CUX1 / RFU, TTC7A / Fold change vs veh, TTC7A / RFU, TMEM135 / Fold change vs veh, TMEM135 / RFU, DEPTOR / Fold change vs veh, DEPTOR / RFU, CPM / Fold change vs veh, CPM / RFU, DNAJB6 / Fold change vs veh, DNAJB6 / RFU, CACNA2D3 / Fold change vs veh, CACNA2D3 / RFU, DTX4 / Fold change vs veh, DTX4 / RFU, TFCP2 / Fold change vs veh, TFCP2 / RFU, GMCL1 /// GMCL1P1 / Fold change vs veh, GMCL1 /// GMCL1P1 / RFU, AEBP2 / Fold change vs veh, AEBP2 / RFU, SNHG1 /// SNORD22 /// SNORD25 /// SNORD26 /// SNORD27 /// SNORD28 /// SNORD29 /// SNORD31 / Fold change vs veh, SNHG1 /// SNORD22 /// SNORD25 /// SNORD26 /// SNORD27 /// SNORD28 /// SNORD29 /// SNORD31 / Fold change (Aza/veh), C12orf56 (ProbeSet 11735607_a_at) / Fold change (ACY-1035/veh), C12orf56 (ProbeSet 11735607_a_at) / Fold change (Aza/veh), FGFR1OP (ProbeSet 11751329_s_at) / Fold change (ACY-1035/veh), FGFR1OP (ProbeSet 11751329_s_at) / Fold change (Aza/veh), VPS36 (ProbeSet 11739960_a_at) / Fold change (ACY-1035/veh), VPS36 (ProbeSet 11739960_a_at) / RFU SYPL1 (11715823_x_at) / Fold change /veh SYPL1 (11715823_x_at) / RFU IGFBP7 (11715501_s_at) / Fold change /veh IGFBP7 (11715501_s_at) / RFU REEP3 (11722064_at) / Fold change /veh REEP3 (11722064_at) / RFU IGLL1 (11728026_x_at) / Fold change /veh IGLL1 (11728026_x_at): dose or concentration left out as unconfirmed
# Conditions: ProbeSet 11727827_x_at; LIST B
compound,measurement,value
Nc1ncn([C@@H]2O[C@H](CO)[C@@H](O)[C@H]2O)c(=O)n1 [azacitidine],"RFU, NDUFAF7",58.08 RFU
